In patent US20170166558A1, “O-GLCNAC TRANSFERASE (OGT) INHIBITORS AND USES THEREOF” (President and Fellows of Harvard College, priority 2014, published 2017):
Values joined by “and” are separate entries in the source; they are usually repeats but may differ in a detail not shown here. Identical values can stand only once.

What was measured:
sOGT = target: T1, sOGT (Homo sapiens, UniProt O15294); test: Fluorescence polarization displacement screen with fluorescein-linked UDP-GlcNAc analog; format: binding; conditions: fluorescence displacement in vitro assay; for IC50: read-out: IC50 (sOGT inhibition)
T1 sequence (O15294 1-665 isoform O15294-4): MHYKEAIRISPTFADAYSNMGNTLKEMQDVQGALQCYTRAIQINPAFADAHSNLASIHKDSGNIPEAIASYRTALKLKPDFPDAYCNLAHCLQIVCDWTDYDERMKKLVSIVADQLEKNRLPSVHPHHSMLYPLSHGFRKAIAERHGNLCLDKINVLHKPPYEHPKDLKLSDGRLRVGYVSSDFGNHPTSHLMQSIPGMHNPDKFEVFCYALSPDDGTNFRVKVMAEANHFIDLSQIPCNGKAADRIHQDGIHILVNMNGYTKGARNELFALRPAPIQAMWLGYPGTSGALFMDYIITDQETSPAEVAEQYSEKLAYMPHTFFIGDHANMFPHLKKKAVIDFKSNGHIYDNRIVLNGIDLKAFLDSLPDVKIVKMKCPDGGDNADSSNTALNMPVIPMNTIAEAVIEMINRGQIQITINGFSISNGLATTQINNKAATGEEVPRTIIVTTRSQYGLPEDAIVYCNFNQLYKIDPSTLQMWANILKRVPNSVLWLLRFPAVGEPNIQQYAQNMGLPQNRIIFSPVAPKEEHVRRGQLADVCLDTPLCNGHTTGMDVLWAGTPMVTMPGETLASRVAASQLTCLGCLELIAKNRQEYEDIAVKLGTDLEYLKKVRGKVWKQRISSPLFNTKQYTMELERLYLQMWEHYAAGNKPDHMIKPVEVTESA
Experimental: About 1000 compound library was serially diluted in DMSO from the 5 mg/ml plates fivefold 3 times, such that 4 different concentrations of compounds were prepared. Compound libraries of the 4 concentrations in duplicated were then transferred to the assay plates using a 100 nL pin array, resulting in a final compound concentration of 25 μg/mL or ˜70 μM at the highest of the four concentrations, assuming an average compound MW of 350. Using a Perkin Elmer Envision® microplate reader, the sample was excited at 480 nm in the vertical plane, and simultaneous emission intensity (535 nm) of the vertical and horizontal polarization planes was measured. The polarization was calculated using the following equation:eq4: mP=1000*(V−G*H)/(V+G*H)where: mP=millipolarization units, V=intensity of vertically polarized emission (RFU), H=intensity of horizontally polarized emission (RFU), and G=gain.
Compounds were screened at […] different concentrations in a fluorescence displacement assay (FIG. 13A)^27. Using the known binding constant for the substrate analog, the dose-response data allowed us to estimate binding affinities (Ki values) for the hits. […] Various analogs were prepared based on a modular assembly (as in FIG. 13B), and OGT inhibition was assessed both in vitro and in cells.

ncOGT = target: T2, ncOGT (Homo sapiens, UniProt O15294); test: Radiometric capture assay with Nup62 acceptor and UDP-14C-GlcNAc; format: biochemical
T2 construct: full length human OGT (ncOGT); made in house
T2 sequence (O15294 1-1046): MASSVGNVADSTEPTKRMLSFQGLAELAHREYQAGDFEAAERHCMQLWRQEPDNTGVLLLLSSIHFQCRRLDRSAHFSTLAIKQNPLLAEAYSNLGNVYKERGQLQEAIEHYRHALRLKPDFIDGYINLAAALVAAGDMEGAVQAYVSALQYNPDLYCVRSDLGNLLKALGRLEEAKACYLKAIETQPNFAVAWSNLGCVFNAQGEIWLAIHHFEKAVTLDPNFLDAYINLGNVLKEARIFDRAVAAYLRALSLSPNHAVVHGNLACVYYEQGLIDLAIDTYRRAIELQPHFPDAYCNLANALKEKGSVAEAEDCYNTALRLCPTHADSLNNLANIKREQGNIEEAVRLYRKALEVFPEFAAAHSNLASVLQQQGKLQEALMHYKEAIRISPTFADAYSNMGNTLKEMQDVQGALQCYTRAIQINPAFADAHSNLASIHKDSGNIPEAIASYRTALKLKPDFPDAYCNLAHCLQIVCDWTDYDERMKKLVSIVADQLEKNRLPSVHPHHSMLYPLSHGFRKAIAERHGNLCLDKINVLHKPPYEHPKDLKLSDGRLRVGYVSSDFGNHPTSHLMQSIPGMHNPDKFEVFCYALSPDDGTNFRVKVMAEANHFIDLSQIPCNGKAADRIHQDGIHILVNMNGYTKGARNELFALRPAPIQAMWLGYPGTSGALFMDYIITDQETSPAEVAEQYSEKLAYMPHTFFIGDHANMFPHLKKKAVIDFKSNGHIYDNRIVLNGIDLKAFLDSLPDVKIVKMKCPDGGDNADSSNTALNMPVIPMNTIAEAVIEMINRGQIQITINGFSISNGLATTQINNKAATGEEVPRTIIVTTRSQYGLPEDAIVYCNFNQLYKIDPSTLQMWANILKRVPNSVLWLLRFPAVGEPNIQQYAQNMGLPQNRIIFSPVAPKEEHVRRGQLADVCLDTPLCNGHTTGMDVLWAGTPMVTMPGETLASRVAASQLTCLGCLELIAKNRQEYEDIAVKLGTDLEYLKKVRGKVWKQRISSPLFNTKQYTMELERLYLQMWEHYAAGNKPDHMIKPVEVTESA
Experimental: Radiometric capture assay: Nucleoporin 62 (Nup62) was used as a model substrate. IC50 values of the both inhibitors were determined at range of 0 to 100 μM (eight point, duplicate). OGT antagonists were tested in a reaction mixture containing 18 μM Nup62, 6 μM UDP-^14C-GlcNAc, 100 nM ncOGT, and lx phosphate-buffered saline (1× PBS) (137 mM NaCl, 2.7 mM KCl, 10 mM Na2HPO4, and 1.8 mM KH2PO4, pH 7.4). The Nup62 glycosylation reactions were run for 15 min at 37° C. Reaction mixtures were subsequently quenched by spottinged on Whatman® Protran® nitrocellulose membrane, washed with 1× PBS three times for 15 minutes each. The membranes were air dried and then counted by liquid scintillation counting. The data were analyzed by Microsoft® Excel and Prism 6 (Graphpad®). Robust non-linear variable slope regressions were generated to determine the IC50 and Hill slope values.
In order to evaluate the mode of inhibition of OSMI-1 and UDP-5S-GlcNAc, a series of experiments, as outlined above, were performed with Nup62 as glycosylation substrate. The inhibition test of OSMI-1 was performed by varying the UDP-^14C-GlcNAc concentration from 0 to 0.25 mM while holding concentration of Nup62 constant at 10 μM with four different concentrations of OSMI-1 (0 to 2 μM) in 1× PBS with 100 nM ncOGT and with fixed and saturating concentrations of GST-Nup62 acceptor. The inhibition test of UDP-5S-GlcNAc was performed by varying the UDP-^14C-GlcNAc concentration from 0 to 1 mM while holding concentration of Nup62 constant at 10 μM with five different concentrations of UDP-5S-GlcNAc (0, 1, 5, 10, and 15 μM) in 1× PBS with 100 nM ncOGT. Each reaction was spotted on Whatman® grade P81 ion exchange chromatography paper circles, washed with 1× PBS three times for 15 minutes each. The membranes were air dried and then counted by liquid scintillation counting. Each assay was duplicated in parallel. The data were analyzed by Microsoft® Excel and Prism 6 (Graphpad®). The Michaelis-Menten plots and Ki of both inhibitors calculated under non-linear regression with competitive inhibition mode are shown in FIG. 5.

OGT in CHO cells = test: Immunoblotting of global O-GlcNAcylation (RL2) in CHO cells; format: cell-based, Chinese hamster; conditions: 24 hours, up to 50 μM
Experimental: In vivo inhibition of glycosylation: For all immunoblotting experiments, CHO-K1 (CHO) cells were grown in F12-K media supplemented with 10% FBS and antibiotics at 37° C. in a 5% CO2 incubator. Cells were treated by adding indicated inhibitor in DMSO vehicle (0.5% final vehicle concentration) upon reaching 70% confluence. After indicated treatment length, cells were harvested by aspirating growth media and washing with ice cold 1× PBS. Cells were subsequently lysed in boiling 1% SDS/20 mM HEPES 7.9. After cooling to room temperature, 1 mM PMSF, 10 μM PUGNAC, 10 μM TMG and 1× Complete protease inhibitor cocktail were added to the solution. The mixture was sonicated and then subjected to a 5 minute incubation at 95° C. The samples were centrifuged for 15 minutes at 20,000×g and the supernatant was collected and the total protein was measured by BCA assay (BIO-RAD).
The sample was separated by SDS-PAGE (Bio-Rad 4-15%, Cat: 345-0028), transferred to a nitrocellulose membrane (iBlot, Invitrogen) and probed with the indicated antibody. Tyipcally, membranes were blocked with 4% BSA in 1× TBS+0.04% tween-20 for 1 hour before incubating with antibody (typically diluted 1:1000 in 4% BSA inlx TBS+0.04% tween-20) overnight at 4° C. Membranes were then washed three times with 1× TBS+0.04% tween-20 and incubated with secondary antibody (typically diluted 1:5000 in 4% BSA in 1× TBS+0.04% tween-20) for 1 hour at room temperature. Lastly, membranes were washed 3× with 1× TBS+0.04% tween-20 and imaged with ECL. D283-Med cells were treated as above but grown in F12-K media supplemented with 10% FBS and antibiotics. HEK, HeLa and LNCaP cells were treated as above but grown in RPMI media supplemented with 10% FBS and antibiotics.

CHO cells = test: ApoTox-Glo cell viability, cytotoxicity and apoptosis signaling assay; format: cell-based, Chinese hamster
Experimental: Cell viability, cytotoxicity and apoptosis signaling assays were performed in a 96-well plate using ApoTox-Glo reagent (Promega) according to the manufacturer's instructions.

[1] = target: T3, full length human OGT (ncOGT) (Homo sapiens, UniProt O15294); test: UDP-Glo luminescence-based coupled enzyme assay; format: biochemical; conditions: 40 μM UDP-GlcNAc, 125 μM CKII3K peptide; read-out: IC50 against ncOGT, coupled enzyme assay
T3 construct: made in house
T3 sequence (O15294 1-1046): T2 sequence (O15294 1-1046)
Experimental: UDP-Glo assay: Materials for this assay were obtained from Promega (catalog #V6961), and the experiment was performed largely as outlined by the manufacturer. IC50 values were determined in the range of 0 to 100 μM (eleven concentration points). Assays were performed either in white, 96-well or ½-volume 96-well, plates. This assay was run with 125 μM CKII3K peptide acceptor. Reaction volumes were between 14 (half volume plates) and 20 (normal volume plates) μL. Reactions contained the following components: 300 nM ncOGT, 125 μM CKII3K and 40 μM UDP-GlcNAc in 1× PBS pH 7.4 supplemented with 1 mM THP. Reactions were incubated for one hour at 25° C. and quenched by the addition of an equal volume of UDP-Glo nucleotide detection reagent, prepared and used according to manufacturer guidelines. The quenched reactions were then mixed briefly by shaking at 1800 rpm in a Thermomixer C, and incubated for one hour at room temperature prior to reading luminescence, as per the manufacturers guidelines. Data were analyzed by Microsoft Excel and Prism 6 (Graphpad). When evaluating the effect of sugar donor concentration, this parameter was varied, while all other conditions remained as described above. Each sample in this case was run in duplicate, unless otherwise specified. The 40 μM curve in FIG. 16C has each point in quadruplicate. Similarly, there is an n=9 for each point in the OSMI-1 curve in FIG. 16B.

Q: Which IC50 (sOGT) does the source give for `CC(C)N(Cc1ccccc1)C(=O)[C@H](NS(=O)(=O)c1ccc2[nH]c(=O)ccc2c1)c1ccccc1` here?
A: The IC50 was 7 µM.

Q: With `O=C([C@H](NS(=O)(=O)c1ccc2[nH]c(=O)ccc2c1)c1ccccc1)N1CCN(c2ccccn2)CC1` as the compound, how does the IC50 (sOGT) read?
A: Its IC50 is 10 µM.

Q: How did the IC50 (sOGT) turn out when `Cc1ccc(N2CCN(C(=O)[C@H](NS(=O)(=O)c3ccc4[nH]c(=O)ccc4c3)c3ccccc3)CC2)cc1` was run?
A: The IC50 was 9 µM.

Q: `O=C([C@H](NS(=O)(=O)c1ccc2[nH]c(=O)ccc2c1)c1ccccc1)N1CCC(Cc2ccccc2)CC1` was tested. Which Ki (sOGT) did it give?
A: The Ki was 2 µM.

Q: For `O=C([C@@H](Cc1ccccc1)NS(=O)(=O)c1ccc2[nH]c(=O)ccc2c1)N(Cc1ccco1)Cc1cccs1` [PG34, (R)—N-(furan-2-ylmethyl)-2-(2-oxo-1,2-dihydroquinoline-6-sulfonamido)-3-phenyl-N-(thiophen-2-ylmethyl)propanamide], which “In vitro inhibitory activity against OGT” value (ncOGT; radiometric capture assay) is on record?
A: Its value is “poor in vitro inhibitory activity against OGT”.

Q: What about the “Effect on global O-GlcNAcylation” value (OGT in CHO cells) of the same compound?
A: Its value is “no reduction in global O-GlcNAc levels”.

Q: And the “Effect on cell viability” value (CHO cells)?
A: The value was “affected cell viability similarly to OSMI-1”.

Q: And the Apoptotic signaling (CHO cells; up to 50 μM)?
A: Its Apoptotic signaling is “Neither compound displayed an effect on apoptotic signaling”.

Q: Which IC50 [1] does the source give for `CC(=O)N[C@@H]1C(OP(=O)(O)OP(=O)(O)OC[C@H]2O[C@@H](n3ccc(=O)[nH]c3=O)[C@H](O)[C@@H]2O)SC(CO)C(O)[C@@H]1O` (some centres unmarked) [UDP-5SGlcNAc, reference compound] here?
A: The IC50 was 78.8 µM.

Q: What about the IC50 (ncOGT; 6 μM UDP-GlcNAc, 18 μM GST-Nup62) of the same compound?
A: Its IC50 is 11 µM and 11.1 µM.

Q: And the Ki (ncOGT; non-linear regression, competitive inhibition fit, Nup62 substrate, read-out: Inhibition constant (Ki))?
A: The Ki was 5 µM.
